Among the data in PMC7139388, “Benzothiazolyl Ureas are Low Micromolar and Uncompetitive Inhibitors of 17β-HSD10 with Implications to Alzheimer’s Disease Treatment” (International Journal of Molecular Sciences, 2020) are remaining activity, melting point and IC50 values, retold here.

In one series the target is T1, human 17β-HSD10 enzyme (Homo sapiens, UniProt Q99714).
T1 construct: made in house; host or cells: Escherichia coli BL21 (DE3)
T1 sequence (Q99714 1-261): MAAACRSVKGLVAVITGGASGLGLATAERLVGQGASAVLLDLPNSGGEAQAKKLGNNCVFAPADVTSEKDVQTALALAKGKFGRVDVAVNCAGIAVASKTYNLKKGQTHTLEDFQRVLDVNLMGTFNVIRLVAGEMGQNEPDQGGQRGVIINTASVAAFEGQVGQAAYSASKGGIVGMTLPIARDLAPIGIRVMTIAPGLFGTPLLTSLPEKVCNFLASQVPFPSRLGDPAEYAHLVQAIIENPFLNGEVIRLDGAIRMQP
The series is described as follows: 17β-HSD10 enzyme inhibition screening and IC50 determination (AAC reductase assay, NADH absorbance at 340 nm). The series is classed as biochemical. The following applies: 320 μM AAC, 320 μM NADH, 37 °C; for remaining activity at 10 µM: 10 μM compound, read-out: Percentage of Residual Activity at 10 μM. The procedure:
The enzyme activity of the human recombinant 17β-HSD10 was determined from previously published methods using acetoacetyl-CoA (AAC) as a substrate. The method was based on the decrease in nicotinamide adenine dinucleotide (NADH) cofactor absorbance at 340 nm during its utilization by the enzyme. To establish the reaction properties correctly, the enzyme kinetic parameters were determined. […] The enzymatic activity of the recombinant protein was determined by using AAC as a substrate for enzyme reduction. To determine the Michaelis constant Km and maximal rate of enzyme reaction Vmax, different substrate concentrations ranging from 0 to 500 μM were incubated with a fixed concentration of cofactor and enzyme. The reaction readout was absorbance at 340 nm for 5 min in 20 s intervals at 37 °C. The data were analyzed by GraphPad Prism 7 (GraphPad Software Inc., San Diego, CA, USA) and Vmax and Km were calculated by non-linear regression analysis using the reaction velocity and substrate concentration data. All reactions were measured in triplicate, and the values were expressed as means ± SD. The general reaction mixture for the reductase activity measurement consisted of 320 μM AAC, 320 μM NADH as the enzyme cofactor and 0.15 μg of recombinant enzyme in assay buffer (10 mM Tris-HCl, pH 7.4, 150 mM NaCl, 1 mM dithiothreitol, 0.001% Tween 20 and 0.01% bovine serum albumin) in 100 µL of reaction buffer. The process was as follows: the reaction mixture of enzyme and cofactor in assay buffer was preincubated for 5 min at 37 °C prior to substrate addition. The reaction was performed in 96-well polystyrene plates at 37 °C (Tecan Spark 10M, Männedorf, Switzerland), and enzyme activity was recorded as the change in absorbance at 340 nm over 1 min and calculated using the molar extinction coefficient of NADH (ε = 6220 M^−1·cm^−1). The novel compounds were screened at 10 μM or 1 μM to determine their ability to inhibit 17β-HSD10 enzyme. The tested compounds were dissolved in dimethyl sulfoxide (DMSO) to a stock concentration of 10 mM and then diluted into deionized water to get the working concentration. The inhibitory screening was based on AAC reductase assay. The remaining enzyme activity was measured at 340 nm at 20 s intervals for 5 min and determined as the difference in absorbance between inhibited and non-inhibited enzymatic reaction. The DMSO was used as well as the inhibitor as the vehicle control. The potent known 17β-HSD10 inhibitor AG18051 [19] was used as a control for the enzymatic reaction. For compounds with at least 50% 17β-HSD10 inhibition in the 10 µM screening assay, the IC50 was determined. For this purpose, the AAC reductase assay was used and the remaining enzyme activity was measured as dose-response inhibition with at least six different inhibitor concentrations (ranging from 0 to 3 μM) at fixed substrate, enzyme, and cofactor concentrations. The data were analyzed by using GraphPad Prism 7 software in non-linear regression, and IC50 values were calculated for each inhibitor from at least three independent measurements, all in triplicate.

Molecules are shown by their SMILES.

`COc1ccc2nc(NC(=O)Nc3ccc(O)cc3F)sc2c1` [Compound 4c, 1-(2-fluoro-4-hydroxyphenyl)-3-(6-methoxybenzo[d]thiazol-2-yl)urea]: the melting point is 241 °C (dec.). In addition, the remaining activity at 10 µM at human 17β-HSD10 enzyme came to 74.9 ± 6.5%.
In the same order, the values of `O=C(Nc1ccc(O)c(Cl)c1)Nc1nc2c(Cl)cccc2s1` [Compound 4am, 1-(3-chloro-4-hydroxyphenyl)-3-(4-chlorobenzo[d]thiazol-2-yl)urea] are 237 to 239 °C and 58.6 ± 1.8%.
In the same order, the values of `O=C(Nc1cccc(Cl)c1)Nc1nc2ccc(Cl)cc2s1` [Compound 4v, 1-(6-chlorobenzo[d]thiazol-2-yl)-3-(3-chlorophenyl)urea] are 351 to 353 °C and 100 ± 10.4%.
For `O=C(Nc1ccc(O)c(F)c1)Nc1nc2ccc(F)cc2s1` [Compound 4d, 1-(3-fluoro-4-hydroxyphenyl)-3-(6-fluorobenzo[d]thiazol-2-yl)urea], in that order: 243 to 244 °C and 85 ± 2.1%.
For the compound `COc1c(F)cccc1NC(=O)Nc1nc2ccc(F)cc2s1` [Compound 4p, 1-(3-fluoro-2-methoxyphenyl)-3-(6-fluorobenzo[d]thiazol-2-yl)urea], the melting point was 366 to 368 °C (dec.). In addition, the remaining activity at 10 µM at human 17β-HSD10 enzyme amounted to 82.8 ± 4.1%.
For the compound `O=C(Nc1ccc(O)c(Cl)c1)Nc1nc2ccccc2o1` [Compound 4ap, 1-(benzo[d]oxazol-2-yl)-3-(3-chloro-4-hydroxyphenyl)urea], the melting point lay within 190.5 to 191.5 °C. Also, on human 17β-HSD10 enzyme, the remaining activity at 10 µM stood at 41.7 ± 4.2% and the IC50 turned out to be 4.7 ± 2.3 µM.
In the same order, the values of `O=C(Nc1ccc(O)c(Cl)c1)Nc1nc2ccccc2s1` [Compound 4au, 1-(benzo[d]thiazol-2-yl)-3-(3-chloro-4-hydroxyphenyl)urea] are 115 to 117 °C, 42.2 ± 2.8% and 2.2 ± 0.5 µM.
Regarding `O=C(Nc1ccc(O)c(Cl)c1)Nc1nc2ccc(Br)cc2s1` [Compound 4aw, 1-(6-bromobenzo[d]thiazol-2-yl)-3-(3-chloro-4-hydroxyphenyl)urea], the melting point was 290 to 292 °C. Moreover, the remaining activity at 10 µM on human 17β-HSD10 enzyme amounted to 69.8 ± 2.9%.
In the same order, the values of `O=C(Nc1nc2ccc(Cl)cc2s1)Nc1ccc(O)cc1Cl` [Compound 4y, 1-(2-chloro-4-hydroxyphenyl)-3-(6-chlorobenzo[d]thiazol-2-yl)urea] are 283 to 285 °C and 94 ± 4.8%.
For `O=C(Nc1ccc(O)c(Cl)c1)Nc1nc2cc(Br)ccc2s1` [Compound 4av, 1-(5-bromobenzo[d]thiazol-2-yl)-3-(3-chloro-4-hydroxyphenyl)urea], in that order: 319 to 321 °C and 54.1 ± 1.4%.
As for `COc1ccc2nc(NC(=O)Nc3ccc(F)cc3OC)sc2c1` [Compound 4u, 1-(4-fluoro-2-methoxyphenyl)-3-(6-methoxybenzo[d]thiazol-2-yl)urea], the melting point is 324 °C (dec.). In addition, the remaining activity at 10 µM on human 17β-HSD10 enzyme worked out at 71 ± 1.7%.
In the same order, the values of `O=C(Nc1ccc(O)c(F)c1)Nc1nc2ccc(Cl)cc2s1` [Compound 4e, 1-(6-chlorobenzo[d]thiazol-2-yl)-3-(3-fluoro-4-hydroxyphenyl)urea] are 281 to 282 °C (dec.) and 80.2 ± 4.2%.
In the same order, the values of `O=C(Nc1ccc(C(=O)O)c(Cl)c1)Nc1nc2ccc(Cl)cc2s1` [Compound 4aa, 2-chloro-4-(3-(6-chlorobenzo[d]thiazol-2-yl)ureido)benzoic acid] are 324 to 326 °C and 90.4 ± 9.3%.
In turn, `COc1ccc2nc(NC(=O)Nc3ccc(O)c(Cl)c3)sc2c1` [Compound 4ba, 1-(3-chloro-4-hydroxyphenyl)-3-(6-methoxybenzo[d]thiazol-2-yl)urea] displayed a melting point of 281 to 283 °C. Moreover, on human 17β-HSD10 enzyme, the remaining activity at 10 µM came out at 38.3 ± 3.2% and the IC50 was 2.4 ± 0.6 µM.
As to `COc1cc(F)ccc1NC(=O)Nc1nc2ccc(Cl)cc2s1` [Compound 4t, 1-(6-chlorobenzo[d]thiazol-2-yl)-3-(4-fluoro-2-methoxyphenyl)urea], the melting point is 356 to 358 °C (dec.). The remaining activity at 10 µM on human 17β-HSD10 enzyme is 72.4 ± 4.8%.
`O=C(Nc1ccc(O)c(Cl)c1)Nc1nc2ccc([N+](=O)[O-])cc2s1` [Compound 4bf, 1-(3-chloro-4-hydroxyphenyl)-3-(6-nitrobenzo[d]thiazol-2-yl)urea] gave a melting point of 277 to 279 °C. Also, on human 17β-HSD10 enzyme, the remaining activity at 10 µM was found to be 55.7 ± 7.2% and the IC50 came out at 5 ± 1.2 µM.
For `COc1ccc2nc(NC(=O)Nc3cccc(F)c3OC)sc2c1` [Compound 4r, 1-(3-fluoro-2-methoxyphenyl)-3-(6-methoxybenzo[d]thiazol-2-yl)urea], the melting point was 329 to 331 °C (dec.). In addition, the remaining activity at 10 µM at human 17β-HSD10 enzyme is 76.6 ± 3.2%.
Compound `COc1ccc2nc(NC(=O)Nc3cc(F)c(O)c(F)c3)sc2c1` [Compound 4i, 1-(3,5-difluoro-4-hydroxyphenyl)-3-(6-methoxybenzo[d]thiazol-2-yl)urea] displayed a melting point of 161 to 162 °C. Moreover, the remaining activity at 10 µM at human 17β-HSD10 enzyme is 56.9 ± 4.4%.
In the same order, the values of `N#Cc1ccc2nc(NC(=O)Nc3ccc(O)c(Cl)c3)sc2c1` [Compound 4be, 1-(3-chloro-4-hydroxyphenyl)-3-(6-cyanobenzo[d]thiazol-2-yl)urea] are 309 to 311 °C and 72.1 ± 3.5%.
In the same order, the values of `O=C(Nc1nc2ccc(F)cc2s1)Nc1ccc(O)cc1F` [Compound 4a, 1-(2-fluoro-4-hydroxyphenyl)-3-(6-fluorobenzo[d]thiazol-2-yl)urea] are 270 °C (dec.) and 75.5 ± 5.2%.
The compound `O=C(Nc1ccc(O)c(Cl)c1)Nc1nc2cc(Cl)ccc2o1` [Compound 4aq, 1-(3-chloro-4-hydroxyphenyl)-3-(5-chlorobenzo[d]oxazol-2-yl)urea] registered a melting point of 176 to 178 °C. Further, at human 17β-HSD10 enzyme, the remaining activity at 10 µM was 57.1 ± 5.4%.
For `COc1ccc(NC(=O)Nc2nc3ccc(Cl)cc3s2)cc1O` [Compound 4ai, 1-(6-chlorobenzo[d]thiazol-2-yl)-3-(3-hydroxy-4-methoxyphenyl)urea], in that order: 281 to 283 °C and 80.5 ± 4.2%.
For `COc1ccc(NC(=O)Nc2nc3ccc(Cl)cc3s2)cc1Cl` [Compound 4z, 1-(3-chloro-4-methoxyphenyl)-3-(6-chlorobenzo[d]thiazol-2-yl)urea], in that order: 307 to 309 °C and 95.2 ± 7.8%.
In the same order, the values of `COc1cc(F)ccc1NC(=O)Nc1nc2ccc(F)cc2s1` [Compound 4s, 1-(4-fluoro-2-methoxyphenyl)-3-(6-fluorobenzo[d]thiazol-2-yl)urea] are 364 to 366 °C (dec.) and 80.5 ± 2.9%.
In turn, `O=C(Nc1ccc(O)c(O)c1)Nc1nc2ccc(Cl)cc2s1` [Compound 4ag, 1-(6-chlorobenzo[d]thiazol-2-yl)-3-(3,4-dihydroxyphenyl)urea] displayed a melting point of 257 to 259 °C. Moreover, the remaining activity at 10 µM at human 17β-HSD10 enzyme was 84.5 ± 1.7%.
As for `O=C(Nc1ccc(O)c(Cl)c1)Nc1nc2ccc(C(F)(F)F)cc2s1` [Compound 4az, 1-(3-chloro-4-hydroxyphenyl)-3-(6-(trifluoromethyl)benzo[d]thiazol-2-yl)urea], the melting point fell in the range of 223 to 225 °C. Besides, on human 17β-HSD10 enzyme, the remaining activity at 10 µM came to 49 ± 7.3% and the IC50 turned out to be 3.4 ± 1.1 µM.

One may read the melting point as the temperature of the solid-liquid transition. In general, IC50 refers to the concentration at which inhibition is half-maximal.
